What was measured:
Format in all cases: in vivo
[1] = tested on: Adriamycin nephropathy female Balb/c mice; experiment: Adriamycin Nephropathy Model (Example 2); conditions: Adriamycin 7.5 mg/kg i.v. day 0; compound 1 90 mg/kg subcutaneously once daily; candesartan orally once daily; week 1, 2 and 3; vs vehicles
Procedure: (§1) The remnant kidney and the adryamicin drug-induced models are commonly used rodent models for FSGS (de Mik S M. Et al. Pathophysiology and treatment of focal segmental glomerulosclerosis: the role of animal models. BMC Nephrol. 2013 Apr. 1; 14:74). The 5/6 remnant kidney model is representative of secondary FSGS whereas the Adriamycin nephropathy model is representative of primary FSGS.
The experiment was performed in female Balb/c mice (Jackson Laboratories). The mice were kept on standard chow and had free access to water. 7.5 mg/kg Adriamycin (Selleck Chemicals) or saline (control) was injected in a tail vein in isoflurane-anesthetized animals at day 0. Compound 1 and its vehicle (1% HPMC) were dosed subcutaneously once daily at 90 mg/kg formulated in 1% HPMC. Candesartan and its vehicle (H2O) were dosed orally once daily. Twelve animals were used for each group.
[…] Urinary albumin was measured by ELISA (Bethyl Labs, Montgomery, TX), and the urinary albumin excretion rate (UAER) was calculated as micrograms per 24 hours. Urinary creatinine was measured by mass spectrometry. The albumin to creatinine ratio (ACR) was calculated as micrograms of albumin per milligram of creatinine.

[2] = tested on: 5/6 remnant kidney 129X1/SvJ mice; experiment: 5/6 Remnant Kidney Model with Combination Treatment (Example 3); conditions: 5/6 nephrectomized mice, compound 3 100 mg/kg subcutaneously once daily, candesartan 5 mg/kg orally once daily
Text: as §1
The 5/6 remnant kidney 129X1/SvJ mice was obtained from Jackson Laboratories. The mice were kept on standard chow and had free access to water. The mice surgery was performed in two stages. Under isoflurane anesthesia, two-thirds of the left kidney mass was dissected. After seven to ten days, a right unilateral nephrectomy was performed. Three to six weeks after the 5/6 nephrectomy, the mice were randomized for the study (n=12 per group). Compound 3 and its vehicle were dosed subcutaneously once daily at 100 mg/kg formulated in 1% HPMC. […]
Urine samples were collected at week one, two and three by individually housing the mice in metabolic cages for 18 hours. Urinary albumin was measured by ELISA (Bethyl Labs, Montgomery, TX), and the urinary albumin excretion rate (UAER) was calculated as micrograms per 24 hours. Urinary creatinine was measured by mass spectrometry. The albumin to creatinine ratio (ACR) was calculated as micrograms of albumin per milligram of creatinine.

[3] = tested on: 5/6 remnant kidney 129X1/SvJ mice; experiment: 5/6 Remnant Kidney Model (Example 1); conditions: 5/6 nephrectomized mice
Text: as §1
The 5/6 remnant kidney 129X1/SvJ mice was obtained from Jackson Laboratories. The mice were kept on standard chow and had free access to water. The mice surgery was performed in two stages. Under isoflurane anesthesia, two-thirds of the left kidney mass was dissected. After 7 to 10 days, a right unilateral nephrectomy was performed. Six weeks after the 5/6 nephrectomy, the mice were randomized for the study. Compound 3 and its vehicle were dosed subcutaneously once daily at 100 mg/kg formulated in 1% HPMC. 6 animals were used for each group.
Urine samples were collected at weeks one and two by individually housing the mice in metabolic cages for 18 hours. Urinary albumin was measured by ELISA (Bethyl Labs, Montgomery, TX), and the urinary albumin excretion rate (UAER) was calculated as micrograms per 24 hours. Urinary creatinine was measured by mass spectrometry. The albumin to creatinine ratio (ACR) was calculated as micrograms of albumin per milligram of creatinine. At the end of the experiments (after 2 weeks of treatment), the kidneys were collected, fixed in formalin, embedded in paraffin, and cut into 3-μm-thick sections. Sections were stained for podocytes by immunohistochemistry with Wilms tumor protein 1 antibody (Abcam, Cambridge, MA). Glomerular cross-sectional area and podocyte number were determined in 20-30 glomeruli per mouse. Glomerulus volume and podocyte density were calculated from the immunohistochemistry data using the Weibel method. Mesangial expansion was measured by silver methenamine stain on 2-μm-thick paraffin sections by conventional methods.

[4] = 100 mg/kg subcutaneously once daily, kidneys after 2 weeks of treatment

Row | SMILES | UACR levels (FIG. 8) [1] | UACR values (FIG. 11) ([2]; week 1 and week 2) | UAER values (FIG. 10) ([2]; weeks 1, 2 and 3) | proteinuria (UACR values, FIG. 1) ([3]; 100 mg/kg subcutaneously once daily in 1% HPMC, week 1 and 2, vs vehicle) | number of renal interstitial macrophages (macrophage content as percentage of total area, FIG. 2) [3, 4] | percentage of glomeruli with mesangiolysis (FIG. 6) [3, 4] | podocytes numbers per glomerular cross section (FIG. 4) [3, 4]
1 | Cc1cnc(C(=O)c2ccnc3[nH]ccc23)c(NS(=O)(=O)c2ccc(Cl)c(C(F)(F)F)c2)c1 [compound 1] | reduction in UACR levels |  |  |  |  |  | 
2 | O=C(c1ncc(Cl)cc1NS(=O)(=O)c1ccc(Cl)c(C(F)(F)F)c1)c1ccnc2[nH]ccc12 [compound 3] |  | reduction in UACR values | reduction in UAER values | reduces the profound proteinuria | reduces the number of renal interstitial macrophages | beneficial effect | increased podocytes numbers
